Experimental data published in patent publication US20220193209A1, “COMPOSITIONS AND METHODS FOR REACTIVATING LATENT IMMUNODEFICIENCY VIRUS AND/OR TREATING IMMUNODEFICIENCY VIRUS INFECTION” (The J. David Gladstone institutes, a testamentary trust …, priority 2019, published 2022).

Tests used:
Smyd2 = Smyd2 (Homo sapiens, UniProt Q9NRG4); settings: SMYD2, substrate competitive; cited from earlier work
[1] = system: latent HIV-1 provirus in J-Lat cells; test: HIV-GFP reactivation in J-Lat cell lines (RT-qPCR, FACS); assay type: cell-based; settings: for HIV-1 reactivation (HIV-GFP): ER stress inducers, 24, 48 and 72 h; for effect on TNFα-mediated HIV reactivation: with 10 ng/mL TNFα (24 h); for effect on AS1842856-induced HIV reactivation: with 1000 nM AS1842856 (72 h)
Procedure: Total RNA from samples was extracted using the Direct-zol RNA kit (R2060; Zymogen). cDNA was generated using 500 ng for CD4^+ T cells or 1000 ng of total RNA for J-Lats with Superscript III Reverse transcription (18080-044; ThermoFisher) and oligo(dT) (18418-012; ThermoFisher). Quantitative RT-PCR was carried out using Maxima SYBR Green qPCR Master Mix (Thermo Scientific) on SDS 2.4 software (Applied Biosystems) in a total volume of 12 μL. The SYBR green qPCR reactions contained 5 μl of 2× Maxima SYBR green/Rox qPCR Master Mix (K0221; ThermoFisher), 5 μl of diluted cDNA, and 1 nmol of both forward and reverse primers. The reactions were run using the following conditions: 50° C. for 2 min and 95° C. for 10 min, followed by 40 cycles of 95° C. for 5 s and 62° C. for 30 s. See Table 1 below for a qRT-PCR primer list. […] Dissociation curve analysis was performed after the end of the PCR to confirm the presence of a single and specific product. All qPCRs were independently repeated at least three times, averaged and compared using standard deviation (±SD).
The J-Lat clonal cell lines are Jurkat cells that contain a stably integrated, latent HIV-1 (HXB) Δenv provirus with a GFP reporter gene in place of the nef gene (Jordan, A. et al. EMBO J. 22, 1868-1877 (2003)). In this system, reactivation from established latency can be monitored through GFP expression.
HIV-GFP mRNA reactivation was assessed by RT-qPCR and normalized to RPL13A mRNA. Data represent average SD of three independent experiments. p-value relative to the control at each time point. FIG. 3, Panel B, depicts cell viability assessed by flow cytometry at 72 h of the same experiment as in A. Cell viability was measured by gating on both the live population at the forward scatter (FSC) and side scatter (SSC) plot and then the viable cells after staining with the viability dye. […] HIV-GFP reactivation (bars) and cell viability (dots) were analyzed by FACS. HIV-GFP reactivation is reported as a percentage of GFP-expressing cells (% GFP+ cells). Data represent average f SD of at least three independent experiments. FIG. 3, Panel D, depicts the same experiments as in FIG. 3, Panel C, but performed in different J-Lat cell lines 5A8, 6.3, 11.1 and 15.4. Data represent average f SD of at least three independent experiments. 10 ng/mL TNFα was used as control. […] Calculation of synergy for drug combinations using the Bliss independence model applied to the HIV-GFP reactivation measured as a percentage of GFP-expressing cells (% GFP+ cells).
Chromatin was prepared from J-Lat A2 and 5A8 cells, in which the LTR was stimulated by 1000 nM AS1842856 treatment, TNFα or which were left untreated/DMSO. […] HIV-GFP reactivation was analyzed by FACS and relativized to the control condition. […] Data represent average SD of 3-6 independent experiments. […] HIV-GFP reactivation was analyzed by FACS. […] HIV-GFP reactivation and cell viability were analyzed by FACS. Data were mean±SD of three independent experiments.

J-Lat cells = test: Cell viability of J-Lat cells by flow cytometry; assay type: cell-based; settings: J-Lat
Procedure: FIG. 3, Panel A, depicts results of treatment of a J-Lat cell line 5A8 with increasing concentrations (1-10000 nM) of AS1842856 for 24, 48 and 72 h. HIV-GFP mRNA reactivation was assessed by RT-qPCR and normalized to RPL13A mRNA. Data represent average SD of three independent experiments. p-value relative to the control at each time point. FIG. 3, Panel B, depicts cell viability assessed by flow cytometry at 72 h of the same experiment as in A. Cell viability was measured by gating on both the live population at the forward scatter (FSC) and side scatter (SSC) plot and then the viable cells after staining with the viability dye. FIG. 3, Panel C, depicts results of treatment of J-Lat cell lines A2 and A72 with increasing concentrations of AS1842856 for 24, 48 and 72 h. HIV-GFP reactivation (bars) and cell viability (dots) were analyzed by FACS. HIV-GFP reactivation is reported as a percentage of GFP-expressing cells (% GFP+ cells). Data represent average f SD of at least three independent experiments. FIG. 3, Panel D, depicts the same experiments as in FIG. 3, Panel C, but performed in different J-Lat cell lines 5A8, 6.3, 11.1 and 15.4. Data represent average f SD of at least three independent experiments. 10 ng/mL TNFα was used as control. FIG. 3 Panel E depicts results of treatment of J-Lat cell lines 5A8, 6.3, 11.1 and 15.4 for 72 h with increasing concentrations of both AS1842856 (Y-axis) and TNFα (X-axis) alone or in combination and analyzed by FACS. Calculation of synergy for drug combinations using the Bliss independence model applied to the HIV-GFP reactivation measured as a percentage of GFP-expressing cells (% GFP+ cells).
FIG. 10, Panels A-F depict results of a J-Lat cell line 5A8 treated with different concentrations of inhibitors. FIG. 10, Panel A, depicts results for a J-Lat cell line A58 that was treated with increasing concentrations of A-92 (GCN2 inhibitor) in combination with 1000 nM AS1842856 (72 h) or 10 ng/mL TNFα (24 h). HIV-GFP reactivation was analyzed by FACS and relativized to the control condition. Histogram plots of percent live cells for each drug treatment are shown. FIG. 10, Panel B, depicts the same experiment as in FIG. 10, Panel A, but cells were treated with increasing concentrations of PKR inhibitor (PKRi). Histogram plots representing viability are also shown. Data are represented by mean±SD of three different […]. […] FIG. 10, Panel D, depicts a J-Lat cell line A58 that was treated with increasing concentrations of Ionomycin (0.01, 0.1, 0.5, 1 μM) for 24, 48 and 72 hr. HIV-GFP reactivation and cell viability were analyzed by FACS. FIG. 10, Panel E, depicts a J-Lat cell line 5A8 that was treated for 72 h with increasing concentrations of both Fenretinide (Y-axis) and Ionomycin (X-axis) alone or in combination and analyzed by FACS. HIV-GFP reactivation is reported as a percentage of GFP-expressing cells (% GFP+ cells). FIG. 10, Panel F, depicts a J-Lat cell line 5A8 that was also treated for 72 h with increasing concentrations of both Thapsigargin (Y-axis) and Cyclosporin A (X-axis) alone or in combination and analyzed by FACS. HIV-GFP reactivation is again reported as a percentage of GFP-expressing cells (% GFP+ cells).

HIV LTR = test: Chromatin immunoprecipitation (ChIP) at the HIV LTR in J-Lat cells; assay type: cell-based, HIV-1
Procedure: J-Lat A2 and A72 cells were treated with TNFα (10 ng/ml) for 18 h. Cells were fixed with 1% formaldehyde (v/v) in fixation buffer (1 mM EDTA, 0.5 mM EGTA, 50 mM Hepes, pH 8.0, 100 mM NaCl), and fixation was stopped after 10 min by addition of glycine to 125 mM. The cell membrane was lysed for 15 min on ice (5 mM Pipes, pH 8.0, 85 mM KCl, 0.5% NP40, protease inhibitors). After washing with nuclear swell buffer (25 mM HEPES, pH 7.5, 4 mM KCl, 1 Mm DTT, 0.5% NP-40, 0.5 mM PMSF) and micrococcal nuclease (MNase) digestion buffer (20 mM Tris pH 7.5, 2.5 mM CaCl2), 5 mM NaCl, 1 mM DTT, 0.5% NP-40), the pellet was resuspended in MNase buffer (15 mM Tris-HCl, pH 7.5, 5 mM MgCl2, 1 mM CaCl2), and 25 mM NaCl). Subsequently, samples were incubated with MNase (New England Biolabs) for 10 min at RT. The reaction was quenched with 0.5 M EDTA and incubated on ice for 5 min. Cells were lysed (1% SDS, 10 mM EDTA, 50 mM Tris-HCl, pH 8.1, protease inhibitors), and chromatin DNA was sheared to 200-1000-bp average size through sonication (Ultrasonic Processor CP-130, Cole Parmer). Cellular debris was pelleted, and the supernatant was recovered. Protein A/G Sepharose beads were blocked with single-stranded salmon sperm DNA and BSA, washed and resuspended in immunoprecipitation buffer. Blocked protein A/G Sepharose beads were added to the digested chromatin fractions and rotated at 4° C. for 2 h to preclear chromatin. Lysates were incubated overnight at 4° C. with 5 μg of FOXO1, RelA, histone H4, H4K20me1, H4K20me2, H4K20me3 antibodies, or IgG control. After incubation with protein A/G agarose beads for 2 h and washing three times with low salt buffer (0.1% SDS, 1% Triton X-100, 2 mM EDTA, 20 mM Tris-HCl, pH 8.1, 150 mM NaCl), one time with high salt buffer (0.1% SDS, 1% Triton X-100, 2 mM EDTA, 20 mM Tris-HCl, pH 8.1, 500 mM NaCl) and twice with TE-buffer (1 mM EDTA, 10 mM Tris-HCl, pH 8.1), chromatin was eluted and recovered with Agencourt AMPure XP beads (Beckman Coulter). Bound chromatin and input DNA were treated with RNase H (New England Biolabs) and Proteinase K (Sigma-Aldrich) at 37° C. for 30 min. Immunoprecipitated chromatin was quantified by real-time PCR using the Maxima SYBR Green qPCR Master Mix (Thermo Scientific) and the ABI 7700 Sequence Detection System (Applied Biosystems). The SDS 2.4 software (Applied Biosystems) was used for analysis. The specificity of each PCR reaction was confirmed by melting curve analysis using the Dissociation Curve software (Applied Biosystems). All chromatin immunoprecipitations and qPCRs were repeated at least three times, and representative results were shown.
Because ATF4 can be recruited to the HIV LTR (Jiang, G. et al. Downloaded from. MBio 8, 1518-1534 (2018)) and the related human T-cell leukemia virus type 1 (HTLV-1) Reddy, T. et al. Oncogene 14, 2785-2792 (1997)), chromatin immunoprecipitation (ChIP) experiments were performed to test whether ATF4 binds the HIV LTR in response to FOXO1 inhibition. While low levels of ATF4 bound HIV LTR chromatin in untreated J-Lat cells, its recruitment was 3-fold enriched after AS1842856 treatment (FIG. 9, Panel A). […] The nuclear factor of activated T cells (NFAT) can occupy the NF-κB binding sites in the HIV LTR, and is activated through calcium mobilization after T cell activation rather than protein kinase C activation as for NF-κB. […]

Sequence of Smyd2 (Q9NRG4 whole entry, species assumed): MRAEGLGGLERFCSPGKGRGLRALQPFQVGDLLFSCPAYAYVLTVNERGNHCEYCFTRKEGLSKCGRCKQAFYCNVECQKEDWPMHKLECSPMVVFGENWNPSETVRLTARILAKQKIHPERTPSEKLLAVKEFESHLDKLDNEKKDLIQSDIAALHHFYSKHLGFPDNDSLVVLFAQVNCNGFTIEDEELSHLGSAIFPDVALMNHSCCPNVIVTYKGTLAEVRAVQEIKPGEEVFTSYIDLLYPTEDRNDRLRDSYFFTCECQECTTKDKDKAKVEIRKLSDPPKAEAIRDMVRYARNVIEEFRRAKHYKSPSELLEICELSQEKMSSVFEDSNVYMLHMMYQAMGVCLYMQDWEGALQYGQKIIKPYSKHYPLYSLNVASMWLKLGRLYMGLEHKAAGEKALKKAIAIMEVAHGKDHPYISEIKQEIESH

## N#Cc1cc(C(=O)NCCCN2CCCC2)cc(-c2ccccc2N2CCN(CCc3c[nH]c4ccccc34)CC2)c1 [AZ391]
Smyd2
  IC50: 62 nM

## C[C@H]1CCC/C=C/[C@@H]2C[C@H](O)C[C@H]2[C@H](O)/C=C/C(=O)O1 [Brefeldin A]
[1]; J-Lat
  HIV-1 reactivation (HIV-GFP): HIV-1 reactivation
J-Lat cells; ER stress inducers
  cellular toxicity: dose-dependent levels of cellular toxicity

## Cc1cccc(CC(=O)N2CCc3c2ccc(-c2cn(C)c4ncnc(N)c24)c3F)n1 [PERK inhibitor]
[1]; J-Lat
  effect on TNFα-mediated HIV reactivation: not affected
  effect on AS1842856-induced HIV reactivation: reduced
[1]; J-Lat, with 1000 nM AS1842856
  suppression of AS1842856-mediated HIV reactivation: ~50%

## O=C1Nc2ccc3ncsc3c2/C1=C/c1cnc[nH]1 [PKR inhibitor]
[1]; J-Lat
  effect on TNFα-mediated HIV reactivation: diminished
  effect on AS1842856-induced HIV reactivation: not

## CC1=C(/C=C/C(C)=C/C=C/C(C)=C/C(=O)Nc2ccc(O)cc2)C(C)(C)CCC1 [fenretinide]
[1]; J-Lat
  HIV-1 reactivation (HIV-GFP): best reactivation
J-Lat cells; ER stress inducers
  cellular toxicity: dose-dependent levels of cellular toxicity
J-Lat cells; fenretinide 0.5 μM, alone or with ionomycin
  cellular toxicity: nontoxic

## C/C=C(/C)C(=O)O[C@H]1C(C)=C2[C@H]([C@@H]1OC(=O)CCCCCCC)[C@@](C)(OC(C)=O)C[C@H](OC(=O)CCC)[C@@]1(O)[C@H]2OC(=O)[C@@]1(C)O [thapsigargin]
[1]; J-Lat
  HIV-1 reactivation (HIV-GFP): HIV-1 reactivation
J-Lat cells; ER stress inducers
  cellular toxicity: dose-dependent levels of cellular toxicity

## TNFα
[1]; J-Lat 5A8, GFP mRNA
  time of maximal activation: 24 h
[1]; four J-Lat clonal cell lines, as early as 24 hours
  GFP expression: induced GFP expression
HIV LTR
  RelA recruitment to the HIV LTR: significantly enriched
